Experimental findings from US20040220149A1, “Nerve cell survival promoters containing cyclic phosphatidic acid derivative” (priority 2001, published 2004) are described below.

What all share (type): cell-based
The test system of series [1] is NIH-3T3, a mouse-derived fibroblast cell. Nature of the series: Formation of actin stress fiber in NIH-3T3 by addition of lysophospholipids. The settings on record: 10 μM lipid, 37° C., 30 minutes, serum-starved NIH-3T3, Rhodamine phalloidin staining; control without lipid: no stress fiber. How it is done: (A-5) Formation of Stress Fiber in NIH-3T3 by Addition of Various Lysophospholipids
NIH-3T3, a mouse-derived fibroblast cell, was incubated in a Dulbecoo's Modified Eagle's Medium (DMEM) containing 10% fetal bovine serum (FBS; made by Moregate), and was used in the Experiment. 2.5×10^4 cells of the NIH-3T3 were inoculated in a petri dish (10 cm in diameter) paved with cover glasses of 22 mm in diameter, and the medium was replacing with a FBS-free medium after 24 hours, and the cells were incubated in a serum starvation state for 48 hours. 10 μM of the lysophospholipid was added, and the cells were incubated at 37° C. for 30 minutes for stimulation. Then, the cells were fixed in the Dalbecco's PBS containing 3.7% of paraformaldehyde and 0.1% of Triton X-100 at room temperature for 10 minutes. Thereafter, the cells were stained with 5 units/ml of rhodamine phalloidin (made by Funakoshi) at 37° C. for 1 hour. The cover glasses were washed with PBS thrice, and observation was carried out by a cofocus laser microscope TCS NT Control laser Scanning Microscope (made by Leica).
The product obtained by the A sp362-derived PLD reaction was studied with respect to its biochemical activity in order to confirm further that it was a compound which is identical to cPA. Namely, the activity of forming actin stress fiber in a fibroblast cell, one of the physiological acteivities of cPA, was studied. To NIH-3T3, i.e. a fibroblast cell line derived from mouse, in the subconfluent state in the serum starvation state, each 10 μM of LPA, a chemically synthesized PHYLPA, or cPA, i.e. the PLD reaction product was added at 37° C. for 30 minutes, and then actin stress fiber was stained with Rhodamine phalloidin, and observation was carried out.

The test system of series [2] is primary cultured nerve cells derived from a hippocampus of a rat fetal brain. The experiment in a line: Measurement of the elongation of neurites. How it is done:
(§1) (A-1) Preparation and Culturing of the Primary Cultured Nerve Cells Derived From a Hippocampus of a Rat Fetal Brain
(§2) Sprague-Dowley rat with 16 days of pregnancy were used as material. The rat were anesthetized with ether, from which the fetal was taken out. The whole brain was taken out under a stereomicroscope, and a hippocampus inside the cerebral cortex was picked out. The picked out hippocampus was collected in a 15 ml centrifuging tube, and 0.5 ml of 2.5% trypsin and a culture solution was added to be a 5 ml solution. The mixture was incubated at 37° C. for 15 minutes and then centrifuged at 3,000 rpm for 15 minutes. The supernatant was removed, 5 ml of the culture solution was added, and the mixture was centrifuged at 3,000 rpm for 15 minutes. The procedure was additionally repeated twice. After adding 3-5 ml of the culture solution, the resultant was pipetted with a Pasteur pipette and then with an injection needle (TERUMO NEEDLE (0.70×38 mm); made by Terumo). The cells, which were finally dissociated through a cell strainer (FALCON Cell Strainer 70 μm; made by FALCON), were primarily cultured on a plate. A culture liquid and a method for coating a plate which allow the nerve cells to be cultured without aggregation, were studied.
(A-3) Measurement of the Elongation of Neurites
In order to study the influence of cPA on the elongation of neurites, the cells were primarily cultured according to the method as described in (A-1), and were photographed at 12, 18 and 24 hours after the start of the culture. The average length of neurites per cell and the number of cells having the neurite at respective time points were analyzed by an image analysis software (NIH Image 1.62).
5 μM of oleoyl cPA was added to the cell culture solution, and the cells were photographed after 24, 48, and 72 hours. The average length of neurites per cell was analyzed by the analysis with the image analysis software (NIH Image 1.62). […] The effect was strongest after 24 hours, as compared with those after 48 hours (1.5 times) and 72 hours (1.2 times) (FIG. 10(a)). Thus, it was considered that the evaluation of the action of cPA on the elongation of neurites at earlier time points was necessary, and the effect of cPA at various levels on the elongation of neurites was studied at 12, 18 and 24 hours after addition. As the result, at the time point after 12 hours, the elongation of neurites in the sample to which cPA of 1.0 μM was added became about 1.7 times that of the control, and gave the maximum value (FIG. 10(b)).

Series [3] shares this test system. Nature of the series: Survival rate of primary cultured nerve cells derived from rat fetal hippocampus. How it is done: as §1
as §2, with “studied. […]” for “studied.”

For series [4] the test system is unchanged. Nature of the series: Influence of P13K inhibitors on the increase of nerve cell survival rate by cPA. The conditions noted are these: 10 μM, nerve cell culture with cPA, 48 hours.
Procedure: Wortmannin (made by Sigma) and LY294002 (made by Sigma), which are inhibitors against phosphatidyl inositol 3-kinase (P13K), were dissolved in DMSO at the concentration of 10 mM and 50 mM respectively, and diluted with PBS. Each of the solutions was added to the cell culture solution at the respective final concentrations of 30 nM and 10 μM. The inhibitors were added to the cell culture solution at 2 hours prior to the addition of cPA, to carry out pretreatment. The cells were photographed at 48 hours after the addition of cPA, and the survival of the cells was morphologically judged on judged on the photographs to calculate the survival rate.

As for lysophosphatidic acid [LPA], the “formation of actin stress fiber” value in series [1] is given as “the formation of stress fibers was observed”.
Consider nerve growth factor [NGF], for which, in series [2] ((optimal level), after 12 hours), the “elongation of neurites compared with that of 1.0 μM cPA (about 1.7 times control)” value is “comparable”.
For the compound `CCCCCC[C@@H]1C[C@@H]1CCCCCCCC(=O)OC[C@@H]1COP(=O)(O)O1` [PHYLPA], in series [1], the “formation of actin stress fiber” value was “the formation of stress fibers was observed”.
In the case of `CCCCCCCC/C=C\CCCCCCCC(=O)OCC1COP(=O)(O)O1` (stereo not shown) [oleoyl cPA, 1-oleoyl cyclic phosphatidic acid], the “formation of actin stress fiber” value in series [1] is “the formation of stress fibers was observed”. In addition, in series [3] (5 μM, serum-free culture), the “survival of the cells compared with control without cPA addition” value is recorded as “the survival of the cells became better”. Also, the “cPA level most effective for the cell survival” value in series [3] (0.5, 1.0, 5.0 or 10.0 μM tested, cell density 3.0×10^5 cells/cm^2) stood at 1.0 µM. In addition, the “ratio of cells having neurites” value in series [2] (1.0 μM, 24 hours after addition) is recorded as “high”. Moreover, the “elongation of neurites relative to control (maximum value)” value in series [2] (1.0 μM, after 12 hours) is “about 1.7 times”. Also, the “average length of neurites per cell relative to control” value is “twice longer than that of the control” in series [2] (5 μM, after 24 hours); 1.5 times in series [2] (5 μM, after 48 hours); 1.2 times in series [2] (5 μM, after 72 hours). The “elongation of neurites compared with control without cPA addition” value in series [2] (5 μM, serum-free culture) was “the elongation of neurites was also observed”.
As to `O=c1cc(N2CCOCC2)oc2c(-c3ccccc3)cccc12` [LY294002], the “cytotoxicity (cell morphology)” value in series [4] is “many cells were destroyed and deformed”.
